The record followed here is ChEMBL document CHEMBL5291721, “A preclinical secondary pharmacology resource illuminates target-adverse drug reaction associations of marketed drugs” (Nat Commun, 2023).

Experiment [1] addresses T1, Muscarinic acetylcholine receptor M1 (Homo sapiens, UniProt P11229).
T1 sequence (P11229 whole entry): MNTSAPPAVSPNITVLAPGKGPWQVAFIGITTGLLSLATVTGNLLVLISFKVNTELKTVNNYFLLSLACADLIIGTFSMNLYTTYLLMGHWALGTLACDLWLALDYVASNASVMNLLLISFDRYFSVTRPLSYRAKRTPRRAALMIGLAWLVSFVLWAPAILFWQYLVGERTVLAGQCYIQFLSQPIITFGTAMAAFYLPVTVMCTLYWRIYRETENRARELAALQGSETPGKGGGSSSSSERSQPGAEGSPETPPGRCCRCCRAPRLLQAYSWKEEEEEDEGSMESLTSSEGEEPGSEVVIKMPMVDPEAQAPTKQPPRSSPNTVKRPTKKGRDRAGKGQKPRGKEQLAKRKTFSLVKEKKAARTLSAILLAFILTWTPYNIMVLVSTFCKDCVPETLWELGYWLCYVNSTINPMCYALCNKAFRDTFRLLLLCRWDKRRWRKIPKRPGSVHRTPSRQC
The format is functional.

Experiment [2] addresses Histamine H3 receptor (Homo sapiens, UniProt Q9Y5N1).
The target in experiment [3] is Motilin receptor (Homo sapiens, UniProt O43193).
In experiment [4] the target is T2, Neuropeptide Y receptor type 1 (Homo sapiens, UniProt P25929).
T2 sequence (P25929 whole entry): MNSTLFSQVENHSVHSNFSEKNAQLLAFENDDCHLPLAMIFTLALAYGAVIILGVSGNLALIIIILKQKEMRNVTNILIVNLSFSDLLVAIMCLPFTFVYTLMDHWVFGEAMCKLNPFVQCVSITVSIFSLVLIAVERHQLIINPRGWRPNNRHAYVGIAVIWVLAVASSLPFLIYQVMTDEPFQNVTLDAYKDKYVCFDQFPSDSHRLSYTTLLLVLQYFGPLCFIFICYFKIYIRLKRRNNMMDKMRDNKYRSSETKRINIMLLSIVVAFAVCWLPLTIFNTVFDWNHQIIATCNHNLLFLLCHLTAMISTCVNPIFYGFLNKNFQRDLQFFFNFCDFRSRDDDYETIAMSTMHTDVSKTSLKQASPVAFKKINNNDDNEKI

The target of experiment [5] is Sodium-dependent serotonin transporter (Homo sapiens, UniProt P31645).
The target of experiment [6] is Sodium-dependent noradrenaline transporter (Homo sapiens, UniProt P23975).
For experiment [7], the target named is 5-hydroxytryptamine receptor 2A (Homo sapiens, UniProt P28223). The format is functional, cell-based.
The target of experiment [8] is T3, Alpha-2A adrenergic receptor (Homo sapiens, UniProt P08913).
T3 sequence (P08913 whole entry): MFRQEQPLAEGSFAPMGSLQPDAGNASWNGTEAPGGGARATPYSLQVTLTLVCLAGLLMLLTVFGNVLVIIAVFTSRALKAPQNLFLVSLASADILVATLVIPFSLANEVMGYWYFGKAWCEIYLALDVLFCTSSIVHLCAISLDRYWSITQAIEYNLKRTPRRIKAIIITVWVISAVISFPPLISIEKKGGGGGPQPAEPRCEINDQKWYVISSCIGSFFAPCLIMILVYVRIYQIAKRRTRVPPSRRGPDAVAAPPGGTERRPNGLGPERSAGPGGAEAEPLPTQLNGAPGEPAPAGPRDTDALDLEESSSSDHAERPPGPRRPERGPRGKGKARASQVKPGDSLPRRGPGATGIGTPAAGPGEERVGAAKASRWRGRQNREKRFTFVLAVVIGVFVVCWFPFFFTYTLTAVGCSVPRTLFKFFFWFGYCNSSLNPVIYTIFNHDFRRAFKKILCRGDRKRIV
It counts as functional, cell-based.

Experiment [9] addresses T4, Gamma-aminobutyric acid receptor subunit alpha-1 (Rattus norvegicus, UniProt P62813).
Experiment [10] addresses Glutamate receptor ionotropic, NMDA 1 (Rattus norvegicus, UniProt P35439).
The target in experiment [11] is 5-hydroxytryptamine receptor 2B (Homo sapiens, UniProt P41595). The format is functional, cell-based.
Experiment [12] addresses T4, Gamma-aminobutyric acid receptor subunit alpha-1. The format is functional.
In experiment [13] the target is cGMP-inhibited 3',5'-cyclic phosphodiesterase 3A (Homo sapiens, UniProt Q14432). The format is functional.
For experiment [14], the target named is Sodium-dependent dopamine transporter (Homo sapiens, UniProt Q01959).
Experiment [15] concerns the target Histamine H2 receptor (Homo sapiens, UniProt P25021). The format is functional, cell-based.
Experiment [16] deals with Adenosine receptor A2a (Homo sapiens, UniProt P29274).
In experiment [17] the target is Beta-1 adrenergic receptor (Homo sapiens, UniProt P08588). It counts as functional.
Experiment [18] concerns the target Cannabinoid receptor 1 (Homo sapiens, UniProt P21554). The format is functional, cell-based.
For experiment [19], the target named is Growth hormone secretagogue receptor type 1 (Homo sapiens, UniProt Q92847).
In experiment [20] the target is T5, 5-hydroxytryptamine receptor 2C (Homo sapiens, UniProt P28335).
T5 sequence (P28335 whole entry): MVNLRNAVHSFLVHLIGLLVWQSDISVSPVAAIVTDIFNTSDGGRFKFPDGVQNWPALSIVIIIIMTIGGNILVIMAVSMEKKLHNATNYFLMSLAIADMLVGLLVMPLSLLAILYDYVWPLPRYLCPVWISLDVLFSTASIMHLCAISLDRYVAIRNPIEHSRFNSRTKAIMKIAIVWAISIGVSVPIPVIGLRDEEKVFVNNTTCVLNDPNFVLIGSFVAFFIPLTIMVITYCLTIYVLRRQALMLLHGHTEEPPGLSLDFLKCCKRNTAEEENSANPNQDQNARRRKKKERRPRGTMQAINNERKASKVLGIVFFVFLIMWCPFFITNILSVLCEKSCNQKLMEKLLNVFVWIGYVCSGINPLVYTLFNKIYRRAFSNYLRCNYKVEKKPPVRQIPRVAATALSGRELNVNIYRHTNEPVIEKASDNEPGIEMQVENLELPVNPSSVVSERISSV

Experiment [21] has as its target Beta-2 adrenergic receptor (Homo sapiens, UniProt P07550).
Note: assay procedure not described here.

Sequence of 5-hydroxytryptamine receptor 2B (P41595 whole entry): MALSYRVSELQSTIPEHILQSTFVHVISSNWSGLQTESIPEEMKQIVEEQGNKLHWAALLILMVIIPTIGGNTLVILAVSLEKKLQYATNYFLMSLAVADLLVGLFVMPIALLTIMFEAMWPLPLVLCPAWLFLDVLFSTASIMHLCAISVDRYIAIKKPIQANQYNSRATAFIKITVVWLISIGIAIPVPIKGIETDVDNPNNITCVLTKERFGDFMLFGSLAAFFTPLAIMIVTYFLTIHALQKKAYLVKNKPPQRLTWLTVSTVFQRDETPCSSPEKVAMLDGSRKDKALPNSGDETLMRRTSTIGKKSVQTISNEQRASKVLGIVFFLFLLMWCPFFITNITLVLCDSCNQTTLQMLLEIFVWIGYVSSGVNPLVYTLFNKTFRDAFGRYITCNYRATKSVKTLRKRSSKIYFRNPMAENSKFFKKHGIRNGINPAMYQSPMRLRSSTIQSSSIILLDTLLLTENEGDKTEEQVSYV
Sequence of Adenosine receptor A2a (P29274 whole entry): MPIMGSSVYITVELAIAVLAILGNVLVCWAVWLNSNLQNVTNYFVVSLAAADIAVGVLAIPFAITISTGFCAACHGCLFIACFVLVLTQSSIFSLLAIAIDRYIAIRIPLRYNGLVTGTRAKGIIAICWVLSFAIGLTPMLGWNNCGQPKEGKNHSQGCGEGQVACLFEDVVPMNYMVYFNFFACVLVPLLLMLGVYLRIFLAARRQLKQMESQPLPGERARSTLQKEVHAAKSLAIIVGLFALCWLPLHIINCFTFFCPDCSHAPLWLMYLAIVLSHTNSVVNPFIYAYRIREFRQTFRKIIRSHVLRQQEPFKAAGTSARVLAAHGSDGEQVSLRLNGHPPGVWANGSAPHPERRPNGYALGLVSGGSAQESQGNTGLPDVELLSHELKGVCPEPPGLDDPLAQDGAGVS
Sequence of Cannabinoid receptor 1 (P21554 whole entry): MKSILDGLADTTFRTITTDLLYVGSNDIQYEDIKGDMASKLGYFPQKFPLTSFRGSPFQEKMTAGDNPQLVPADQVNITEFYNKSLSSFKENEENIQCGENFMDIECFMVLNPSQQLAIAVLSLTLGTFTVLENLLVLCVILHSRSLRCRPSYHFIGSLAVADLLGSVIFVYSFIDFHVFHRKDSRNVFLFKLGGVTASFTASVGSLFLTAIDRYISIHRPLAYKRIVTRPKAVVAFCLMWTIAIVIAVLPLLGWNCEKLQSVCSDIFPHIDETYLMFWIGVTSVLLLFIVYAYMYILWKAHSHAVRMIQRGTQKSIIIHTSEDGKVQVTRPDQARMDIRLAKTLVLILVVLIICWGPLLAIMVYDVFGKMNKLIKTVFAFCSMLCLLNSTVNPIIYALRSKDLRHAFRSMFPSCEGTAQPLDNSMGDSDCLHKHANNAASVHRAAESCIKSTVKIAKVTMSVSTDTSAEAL
Sequence of Histamine H3 receptor (Q9Y5N1 whole entry): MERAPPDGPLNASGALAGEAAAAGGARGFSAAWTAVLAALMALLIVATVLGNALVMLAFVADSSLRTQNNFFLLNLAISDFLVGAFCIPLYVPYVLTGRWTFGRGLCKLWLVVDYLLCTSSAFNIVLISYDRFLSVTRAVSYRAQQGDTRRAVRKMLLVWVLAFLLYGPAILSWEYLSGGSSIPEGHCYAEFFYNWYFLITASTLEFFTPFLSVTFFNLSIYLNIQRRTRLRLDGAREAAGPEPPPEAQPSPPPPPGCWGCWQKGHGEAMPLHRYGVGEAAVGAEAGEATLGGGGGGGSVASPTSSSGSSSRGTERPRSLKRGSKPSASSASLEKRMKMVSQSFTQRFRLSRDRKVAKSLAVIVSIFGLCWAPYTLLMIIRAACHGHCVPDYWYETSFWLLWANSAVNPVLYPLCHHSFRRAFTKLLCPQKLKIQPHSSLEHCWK
Sequence of Sodium-dependent serotonin transporter (P31645 whole entry): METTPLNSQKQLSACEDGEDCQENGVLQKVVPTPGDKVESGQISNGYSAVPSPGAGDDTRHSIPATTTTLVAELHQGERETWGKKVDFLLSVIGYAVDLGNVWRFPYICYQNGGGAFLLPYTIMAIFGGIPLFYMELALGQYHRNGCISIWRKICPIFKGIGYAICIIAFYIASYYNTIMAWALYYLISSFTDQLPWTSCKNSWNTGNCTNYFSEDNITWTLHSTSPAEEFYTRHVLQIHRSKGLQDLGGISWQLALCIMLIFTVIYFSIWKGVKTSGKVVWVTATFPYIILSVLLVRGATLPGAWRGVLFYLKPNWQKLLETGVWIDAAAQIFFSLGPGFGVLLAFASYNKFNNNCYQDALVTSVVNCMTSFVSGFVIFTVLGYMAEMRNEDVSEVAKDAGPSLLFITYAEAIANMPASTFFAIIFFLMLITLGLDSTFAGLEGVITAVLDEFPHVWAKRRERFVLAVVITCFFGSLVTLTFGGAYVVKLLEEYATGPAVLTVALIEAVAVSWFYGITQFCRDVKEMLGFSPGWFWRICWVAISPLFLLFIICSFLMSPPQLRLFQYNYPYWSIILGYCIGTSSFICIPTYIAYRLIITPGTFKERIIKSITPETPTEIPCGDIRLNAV
Sequence of Histamine H2 receptor (P25021 whole entry): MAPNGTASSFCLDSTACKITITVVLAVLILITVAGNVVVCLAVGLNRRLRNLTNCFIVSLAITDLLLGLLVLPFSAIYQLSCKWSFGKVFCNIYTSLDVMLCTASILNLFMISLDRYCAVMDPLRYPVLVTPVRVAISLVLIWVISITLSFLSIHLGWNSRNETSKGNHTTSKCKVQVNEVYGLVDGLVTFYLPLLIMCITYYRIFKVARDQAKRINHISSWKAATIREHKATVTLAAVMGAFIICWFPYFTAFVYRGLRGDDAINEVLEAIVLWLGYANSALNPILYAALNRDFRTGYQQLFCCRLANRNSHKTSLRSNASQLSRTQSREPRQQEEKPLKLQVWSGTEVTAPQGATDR
Sequence of cGMP-inhibited 3',5'-cyclic phosphodiesterase 3A (Q14432 whole entry): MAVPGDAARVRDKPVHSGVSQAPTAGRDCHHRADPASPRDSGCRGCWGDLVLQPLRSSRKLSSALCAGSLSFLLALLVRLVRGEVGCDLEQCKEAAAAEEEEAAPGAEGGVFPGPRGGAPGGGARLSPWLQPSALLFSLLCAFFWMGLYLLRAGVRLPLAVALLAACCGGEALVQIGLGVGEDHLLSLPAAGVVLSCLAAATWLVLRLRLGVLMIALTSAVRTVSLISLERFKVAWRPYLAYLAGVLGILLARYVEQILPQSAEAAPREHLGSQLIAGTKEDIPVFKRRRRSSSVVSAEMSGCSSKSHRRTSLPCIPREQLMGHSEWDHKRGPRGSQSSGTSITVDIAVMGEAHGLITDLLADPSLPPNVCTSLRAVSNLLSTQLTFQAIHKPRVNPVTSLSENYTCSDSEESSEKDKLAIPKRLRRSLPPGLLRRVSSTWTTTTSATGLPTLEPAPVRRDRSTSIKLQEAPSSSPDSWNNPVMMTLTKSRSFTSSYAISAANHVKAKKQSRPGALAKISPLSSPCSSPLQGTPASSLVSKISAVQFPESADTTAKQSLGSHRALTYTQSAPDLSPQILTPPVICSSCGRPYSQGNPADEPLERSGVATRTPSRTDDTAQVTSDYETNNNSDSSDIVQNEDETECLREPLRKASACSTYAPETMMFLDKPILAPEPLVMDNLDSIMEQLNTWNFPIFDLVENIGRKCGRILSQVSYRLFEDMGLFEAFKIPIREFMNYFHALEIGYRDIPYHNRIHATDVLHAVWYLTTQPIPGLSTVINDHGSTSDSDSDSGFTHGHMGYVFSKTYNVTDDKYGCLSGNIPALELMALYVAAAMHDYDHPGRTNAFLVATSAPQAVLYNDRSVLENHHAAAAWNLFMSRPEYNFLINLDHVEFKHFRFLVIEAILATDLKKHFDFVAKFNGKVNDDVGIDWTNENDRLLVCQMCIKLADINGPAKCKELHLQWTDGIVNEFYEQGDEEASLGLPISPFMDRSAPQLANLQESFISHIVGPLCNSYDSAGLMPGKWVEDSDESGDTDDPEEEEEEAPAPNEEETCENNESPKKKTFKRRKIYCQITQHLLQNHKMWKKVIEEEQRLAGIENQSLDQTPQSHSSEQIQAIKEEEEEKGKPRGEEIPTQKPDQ
Sequence of Growth hormone secretagogue receptor type 1 (Q92847 whole entry): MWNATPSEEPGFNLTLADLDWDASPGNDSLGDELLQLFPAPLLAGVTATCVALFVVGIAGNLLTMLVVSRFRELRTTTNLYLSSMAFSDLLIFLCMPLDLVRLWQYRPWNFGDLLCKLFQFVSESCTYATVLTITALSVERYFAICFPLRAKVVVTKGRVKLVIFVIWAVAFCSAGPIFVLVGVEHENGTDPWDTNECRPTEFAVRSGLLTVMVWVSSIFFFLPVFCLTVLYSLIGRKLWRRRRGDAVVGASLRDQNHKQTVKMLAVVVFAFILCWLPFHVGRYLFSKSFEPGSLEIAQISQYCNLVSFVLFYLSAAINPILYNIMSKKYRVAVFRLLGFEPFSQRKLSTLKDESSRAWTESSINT
Sequence of Sodium-dependent noradrenaline transporter (P23975 whole entry): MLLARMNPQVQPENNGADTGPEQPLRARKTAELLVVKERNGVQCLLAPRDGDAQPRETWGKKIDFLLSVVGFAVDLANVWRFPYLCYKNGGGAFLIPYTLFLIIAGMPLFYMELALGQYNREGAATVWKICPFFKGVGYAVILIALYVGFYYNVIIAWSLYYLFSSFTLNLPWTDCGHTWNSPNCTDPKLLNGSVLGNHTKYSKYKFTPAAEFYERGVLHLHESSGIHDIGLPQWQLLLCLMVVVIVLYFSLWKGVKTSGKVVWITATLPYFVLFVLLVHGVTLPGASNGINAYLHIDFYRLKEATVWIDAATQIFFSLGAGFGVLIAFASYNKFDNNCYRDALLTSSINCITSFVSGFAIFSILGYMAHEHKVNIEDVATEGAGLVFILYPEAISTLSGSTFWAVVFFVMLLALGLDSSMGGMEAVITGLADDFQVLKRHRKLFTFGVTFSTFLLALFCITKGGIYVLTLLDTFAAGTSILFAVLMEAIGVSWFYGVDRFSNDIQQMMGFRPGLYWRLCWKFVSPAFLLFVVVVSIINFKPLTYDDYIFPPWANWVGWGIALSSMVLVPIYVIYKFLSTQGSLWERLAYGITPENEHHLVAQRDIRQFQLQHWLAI

One may read the AC50 as the concentration at which the activity in the assay is half-maximal. The low end stands for activity at low concentration, the high end for activity only at high concentration. For the compound `CCCCC(C)(O)C/C=C/[C@H]1[C@H](O)CC(=O)[C@@H]1CCCCCCC(=O)OC` (some centres undefined) [MISOPROSTOL], the AC50 in experiment [1], in experiment [2], in [3], in [4], in experiment [5] and in experiment [6] was over 30 µM in each case. For the same compound, the half-maximal activity concentration (AC50) in experiment [7], in experiment [8], in experiment [9], in [10], in experiment [11] and in [12] was over 30 µM throughout. Further, the half-maximal activity concentration (AC50) in experiment [13], in [14], in experiment [15], in experiment [16], in experiment [17] and in experiment [18] was over 30 µM in each case. The AC50 in experiment [19] is over 30 µM; in experiment [20], over 10 µM.
With `O=C1CN=C(c2ccccc2)c2cc(Cl)ccc2N1CC(F)(F)F` [HALAZEPAM], the concentration at half-maximal activity (AC50) in [1], in experiment [2], in experiment [3], in experiment [4], in experiment [5] and in [6] was over 30 µM throughout. Also, the AC50 was over 30 µM in [7]; over 30 µM in [8]; over 30 µM in experiment [10]; over 30 µM in experiment [11]; 0.506 µM in [12]; over 30 µM in experiment [13]. Also, the AC50 in experiment [14], in experiment [15], in experiment [16], in experiment [17], in [18] and in experiment [19] was over 30 µM throughout.
Consider `C=C1CC[C@@]2(O)[C@H]3Cc4ccc(O)c5c4[C@@]2(CCN3CC2CC2)[C@H]1O5`, for which the half-maximal activity concentration (AC50) in [1], in experiment [2], in experiment [3], in experiment [4], in experiment [5] and in experiment [6] was over 30 µM throughout. Moreover, the AC50 in experiment [7], in [8], in [9], in [10], in experiment [11] and in experiment [12] was over 30 µM each time. In addition, the AC50 in experiment [13], in experiment [14], in [15], in experiment [16], in experiment [17] and in experiment [18] was over 30 µM in each case. Besides, the AC50 in experiment [19] and in experiment [20] was over 30 µM each time.
On to `CCCCCOC(=O)Nc1nc(=O)n([C@@H]2O[C@H](C)[C@@H](O)[C@H]2O)cc1F` [CAPECITABINE], for which the AC50 in [1], in [2], in experiment [3], in [4], in experiment [5] and in experiment [6] was over 30 µM throughout. Moreover, the AC50 in experiment [7], in experiment [8], in experiment [10], in experiment [11], in experiment [12] and in experiment [13] was over 30 µM in each case. In addition, the AC50 in experiment [14], in [15], in experiment [16], in experiment [17], in experiment [18] and in experiment [19] was over 30 µM each time. In experiment [20], this compound had a half-maximal activity concentration (AC50) of over 30 µM.
In the case of `Cc1c(Cl)cccc1Nc1ccccc1C(=O)O` [TOLFENAMIC ACID], the concentration at half-maximal activity (AC50) in experiment [1] is over 30 µM; in experiment [2], over 30 µM; in [3], over 30 µM; in experiment [4], over 30 µM; in [5] it was over 30 µM; in [7], 15 µM. The AC50 in experiment [8] is 20 µM; in experiment [9] it was over 30 µM; in experiment [10], over 30 µM; in experiment [11], over 30 µM; in experiment [12] it was over 30 µM; in [13], over 30 µM. The half-maximal activity concentration (AC50) in experiment [14], in experiment [15], in [16], in [17], in [18] and in [19] was over 30 µM throughout. In experiment [20], this compound gave an AC50 of over 30 µM.
As to `Cc1nc2ccc(CN(C)c3ccc(C(=O)N[C@@H](CCC(=O)O)C(=O)O)s3)cc2c(=O)[nH]1` [RALTITREXED], the AC50 in experiment [1], in [2], in [21], in [3], in experiment [4] and in experiment [5] was over 30 µM in each case. Also, the concentration at half-maximal activity (AC50) in [6], in [7], in experiment [8], in experiment [9], in [10] and in experiment [11] was over 30 µM throughout. In addition, the AC50 in experiment [12], in experiment [13], in [14], in experiment [15], in experiment [16] and in [17] was over 30 µM throughout. In addition, the AC50 in experiment [19] and in [20] was over 30 µM throughout.
As for `CCCC(CCC)C(=O)O[C@H]1C[C@H]2CC[C@@H](C1)[N+]2(C)C` [ANISOTROPINE], the half-maximal activity concentration (AC50) in experiment [1] was 0.17 µM; in experiment [2] it was over 30 µM; in [3] it was over 30 µM; in [4], over 30 µM; in experiment [5], over 30 µM; in experiment [7] it was over 30 µM. For the same compound, the half-maximal activity concentration (AC50) in [8], in experiment [10], in experiment [11], in [12], in [13] and in [14] was over 30 µM each time. The AC50 in experiment [15], in [16], in experiment [17], in experiment [18], in [19] and in [20] was over 30 µM in each case.
